From patent US8952024B2, “Herbicidal pyrimidone derivatives” (E I du Pont de Nemours and Company, priority 2009, dated 2015)
Read-outs that look alike come from different tables or passages of the source.

How the values were obtained:
Format in all cases: in vivo
[1] = system: winter barley (Hordeum vulgare); experiment: Test B postemergence plant response; settings: Postemergence
Description: (§1) At the same time, plants selected from these crop and weed species and also winter barley (Hordeum vulgare), canarygrass (Phalaris minor), chickweed (Stellaria media) and windgrass (Apera spica-venti) were planted in pots containing Redi-Earth® planting medium (Scotts Company, 14111 Scottslawn Road, Marysville, Ohio 43041) comprising spaghnum peat moss, vermiculite, wetting agent and starter nutrients and treated with postemergence applications of some of the test chemicals formulated in the same manner. Plants ranged in height from 2 to 18 cm (1- to 4-leaf stage) for postemergence treatments.
(§2) Treated plants and controls were maintained in a greenhouse for 13 to 15 days, after which time all treated plants were visually evaluated and compared to controls. Plant response ratings, summarized in Table B, are based on a scale of 0 to 100 where 0 is no effect and 100 is complete control. A dash (-) response means no test result.

[2] = system: canarygrass (Phalaris minor); experiment: Test B postemergence plant response; settings: Postemergence
Description: as §1, §2

[3] = system: windgrass (Apera spica-venti); experiment: Test B postemergence plant response; settings: Postemergence
Description: as §1, §2

[4] = system: chickweed (Stellaria media); experiment: Test B postemergence plant response; settings: Postemergence
Description: as §1, §2

[5] = system: pigweed (Amaranthus retroflexus); experiment: Test A pre-/postemergence plant response; settings: Amaranthus retroflexus, 240 h; for pest or weed control at 125 g/ha: 125 g ai/ha; for pest or weed control at 500 g/ha: 500 g ai/ha
Procedure, shortened: (§3)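 Plants grown from seed in a loam soil and sand mix received test compounds both as a preemergence soil spray and, at the same time, as a postemergence spray at the one- to two-leaf stage. Injury was judged visually against untreated controls roughly ten days later, 0 meaning no effect and 100 complete control.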

[6] = system: morningglory (Ipomoea spp.); experiment: Test A pre-/postemergence plant response; settings: Ipomoea, 240 h; for pest or weed control at 125 g/ha: 125 g ai/ha; for pest or weed control at 500 g/ha: 500 g ai/ha
Procedure, shortened: as §3

[7] = system: velvetleaf (Abutilon theophrasti); experiment: Test A pre-/postemergence plant response; settings: Abutilon theophrasti, 240 h; for pest or weed control at 125 g/ha: 125 g ai/ha; for pest or weed control at 500 g/ha: 500 g ai/ha
Procedure, shortened: as §3

[8] = system: wheat (Triticum aestivum); experiment: Test A pre-/postemergence plant response; settings: Triticum aestivum, 240 h; for plant injury at 125 g/ha: 125 g ai/ha; for plant injury at 500 g/ha: 500 g ai/ha
Procedure, shortened: as §3

[9] = system: large crabgrass (Digitaria sanguinalis); experiment: Test A pre-/postemergence plant response; settings: Digitaria sanguinalis, 240 h; for pest or weed control at 125 g/ha: 125 g ai/ha; for pest or weed control at 500 g/ha: 500 g ai/ha
Procedure, shortened: as §3

[10] = system: barnyardgrass (Echinochloa crus-galli); experiment: Test A pre-/postemergence plant response; settings: Echinochloa crus-galli, 240 h; for pest or weed control at 125 g/ha: 125 g ai/ha; for pest or weed control at 500 g/ha: 500 g ai/ha
Procedure, shortened: as §3

[11] = system: giant foxtail (Setaria faberii); experiment: Test A pre-/postemergence plant response; settings: Setaria faberi, 240 h; for pest or weed control at 125 g/ha: 125 g ai/ha; for pest or weed control at 500 g/ha: 500 g ai/ha
Procedure, shortened: as §3

corn (Zea mays) = experiment: Test A pre-/postemergence plant response; settings: Zea mays, 240 h; for Corn plant response rating (crop injury, 0 = no effect, 100 = complete kill) at 500 g/ha: 500 g ai/ha
Procedure, shortened: as §3

Question: What does the source list for `COc1ccc(-n2c(-c3ccccc3)ncc(C(=O)C3=C(O)CCCC3=O)c2=O)cc1` [Compound 4, 5-[(2-hydroxy-6-oxo-cyclohexen-1-yl)carbonyl]-3-(4-methoxyphenyl)-2-phenyl-4(3H)-pyrimidinone]?
Answer: plant injury at 31 g/ha ([1]; Hordeum vulgare, post-emergence, 31 g ai/ha, scale 0 to 100 (0 no effect, 100 complete control), read-out: Plant response rating, Barley): 0%; plant injury at 62 g/ha ([1]; Hordeum vulgare, post-emergence, 62 g ai/ha, scale 0 (no effect) to 100 (complete control), 13 to 15 days, read-out: Plant response rating, Barley): 0%; plant injury at 125 g/ha ([1]; Hordeum vulgare, post-emergence, 125 g ai/ha, scale 0 to 100 (0 no effect, 100 complete control), 13 to 15 days, read-out: Plant response rating, Barley): 0%; Barley plant response rating ([1]; 250 g ai/ha, scale 0 to 100): 10; pest or weed control at 31 g/ha ([2]; Phalaris minor, post-emergence, 360 h, 31 g ai/ha, scale 0 to 100 (0 no effect, 100 complete control), read-out: Plant response rating, Canarygrass): 10%; pest or weed control at 62 g/ha ([2]; Phalaris minor, post-emergence, 360 h, 62 g ai/ha, scale 0 (no effect) to 100 (complete control), 13 to 15 days, read-out: Plant response rating, Canarygrass): 20%; pest or weed control at 125 g/ha ([2]; Phalaris minor, post-emergence, 360 h, 125 g ai/ha, visual rating after 13 to 15 days, scale 0 (no effect) to 100 (complete control)): 75%; Canarygrass plant response rating ([2]; 250 g ai/ha, scale 0 to 100): 80; pest or weed control at 31 g/ha ([3]; Apera spica-venti, post-emergence, 360 h, 31 g ai/ha, scale 0 to 100 (0 no effect, 100 complete control), read-out: Plant response rating, Windgrass): 50%; pest or weed control at 62 g/ha ([3]; Apera spica-venti, post-emergence, 360 h, 62 g ai/ha, scale 0 (no effect) to 100 (complete control), 13 to 15 days, read-out: Plant response rating, Windgrass): 55%; pest or weed control at 125 g/ha ([3]; Apera spica-venti, post-emergence, 360 h, 125 g ai/ha, visual rating after 13 to 15 days, scale 0 (no effect) to 100 (complete control)): 60%; Windgrass plant response rating ([3]; 250 g ai/ha, scale 0 to 100): 75; Chickweed plant response rating ([4]; 250 g ai/ha, scale 0 to 100): 100; pest or weed control at 31 g/ha ([4]; Stellaria media, post-emergence, 360 h, 31 g ai/ha, scale 0 to 100 (0 no effect, 100 complete control), read-out: Plant response rating, Chickweed): 100%; pest or weed control at 62 g/ha ([4]; Stellaria media, post-emergence, 360 h, 62 g ai/ha, scale 0 (no effect) to 100 (complete control), 13 to 15 days, read-out: Plant response rating, Chickweed): 100%; pest or weed control at 125 g/ha ([4]; Stellaria media, post-emergence, 360 h, 125 g ai/ha, visual rating after 13 to 15 days, scale 0 (no effect) to 100 (complete control)): 100%; pest or weed control at 125 g/ha ([5]; post-emergence, Postemergence, visual injury, 0 to 100 scale (0 no effect, 100 complete control), approx. ten days, read-out: Pigweed plant response rating): 100%; pest or weed control at 500 g/ha ([5]; post-emergence, Postemergence, 0 to 100 scale, 0 = no effect, 100 = complete control, approx. ten days, read-out: Plant response rating, Pigweed): 100%; pest or weed control at 125 g/ha ([5]; pre-emergence, Preemergence, 0 to 100 scale, 0 = no effect, 100 = complete control, read-out: Plant response rating, Pigweed): 90%; pest or weed control at 500 g/ha ([5]; pre-emergence, Preemergence, visual injury, 0 to 100 scale (0 no effect, 100 complete control), approx. ten days, read-out: Plant response rating, Pigweed): 90%; pest or weed control at 125 g/ha ([6]; post-emergence, Postemergence, visual injury, 0 to 100 scale (0 no effect, 100 complete control), approx. ten days, read-out: Morningglory plant response rating): 100%; pest or weed control at 500 g/ha ([6]; post-emergence, Postemergence, 0 to 100 scale, 0 = no effect, 100 = complete control, approx. ten days, read-out: Plant response rating, Morningglory): 100%; pest or weed control at 125 g/ha ([6]; pre-emergence, Preemergence, 0 to 100 scale, 0 = no effect, 100 = complete control, read-out: Plant response rating, Morningglory): 0%; pest or weed control at 500 g/ha ([6]; pre-emergence, Preemergence, visual injury, 0 to 100 scale (0 no effect, 100 complete control), approx. ten days, read-out: Plant response rating, Morningglory): 70%; pest or weed control at 125 g/ha ([7]; post-emergence, Postemergence, visual injury, 0 to 100 scale (0 no effect, 100 complete control), approx. ten days, read-out: Velvetleaf plant response rating): 100%; pest or weed control at 500 g/ha ([7]; post-emergence, Postemergence, 0 to 100 scale, 0 = no effect, 100 = complete control, approx. ten days, read-out: Plant response rating, Velvetleaf): 100%; pest or weed control at 125 g/ha ([7]; pre-emergence, Preemergence, 0 to 100 scale, 0 = no effect, 100 = complete control, read-out: Plant response rating, Velvetleaf): 40%; pest or weed control at 500 g/ha ([7]; pre-emergence, Preemergence, visual injury, 0 to 100 scale (0 no effect, 100 complete control), approx. ten days, read-out: Plant response rating, Velvetleaf): 100%; plant injury at 125 g/ha ([8]; post-emergence, Postemergence, visual injury, 0 to 100 scale (0 no effect, 100 complete control), approx. ten days, read-out: Wheat plant response rating): 0%; plant injury at 500 g/ha ([8]; post-emergence, Postemergence, 0 to 100 scale, 0 = no effect, 100 = complete control, approx. ten days, read-out: Plant response rating, Wheat): 60%; plant injury at 125 g/ha ([8]; pre-emergence, Preemergence, 0 to 100 scale, 0 = no effect, 100 = complete control, read-out: Plant response rating, Wheat): 0%; plant injury at 500 g/ha ([8]; pre-emergence, Preemergence, visual injury, 0 to 100 scale (0 no effect, 100 complete control), approx. ten days, read-out: Plant response rating, Wheat): 20%; pest or weed control at 125 g/ha ([9]; post-emergence, Postemergence, visual injury, 0 to 100 scale (0 no effect, 100 complete control), approx. ten days, read-out: Crabgrass, Large plant response rating): 70%; pest or weed control at 500 g/ha ([9]; post-emergence, Postemergence, 0 to 100 scale, 0 = no effect, 100 = complete control, approx. ten days, read-out: Plant response rating, Crabgrass, Large): 90%; pest or weed control at 125 g/ha ([9]; pre-emergence, Preemergence, 0 to 100 scale, 0 = no effect, 100 = complete control, read-out: Plant response rating, Crabgrass, Large): 20%; pest or weed control at 500 g/ha ([9]; pre-emergence, Preemergence, visual injury, 0 to 100 scale (0 no effect, 100 complete control), approx. ten days, read-out: Plant response rating, Crabgrass, Large): 90%; pest or weed control at 125 g/ha ([10]; post-emergence, Postemergence, visual injury, 0 to 100 scale (0 no effect, 100 complete control), approx. ten days, read-out: Barnyardgrass plant response rating): 90%; pest or weed control at 500 g/ha ([10]; post-emergence, Postemergence, 0 to 100 scale, 0 = no effect, 100 = complete control, approx. ten days, read-out: Plant response rating, Barnyardgrass): 100%; pest or weed control at 125 g/ha ([10]; pre-emergence, Preemergence, 0 to 100 scale, 0 = no effect, 100 = complete control, read-out: Plant response rating, Barnyardgrass): 10%; pest or weed control at 500 g/ha ([10]; pre-emergence, Preemergence, visual injury, 0 to 100 scale (0 no effect, 100 complete control), approx. ten days, read-out: Plant response rating, Barnyardgrass): 70%; pest or weed control at 125 g/ha ([11]; post-emergence, Postemergence, visual injury, 0 to 100 scale (0 no effect, 100 complete control), approx. ten days, read-out: Foxtail, Giant plant response rating): 80%; pest or weed control at 500 g/ha ([11]; post-emergence, Postemergence, 0 to 100 scale, 0 = no effect, 100 = complete control, approx. ten days, read-out: Plant response rating, Foxtail, Giant): 90%; pest or weed control at 125 g/ha ([11]; pre-emergence, Preemergence, 0 to 100 scale, 0 = no effect, 100 = complete control, read-out: Plant response rating, Foxtail, Giant): 10%; pest or weed control at 500 g/ha ([11]; pre-emergence, Preemergence, visual injury, 0 to 100 scale (0 no effect, 100 complete control), approx. ten days, read-out: Plant response rating, Foxtail, Giant): 70%; plant injury at 125 g/ha (corn (Zea mays); post-emergence, Postemergence, 125 g ai/ha, visual injury, 0 to 100 scale (0 no effect, 100 complete control), approx. ten days, read-out: Corn plant response rating): 10%; Corn plant response rating (crop injury, 0 = no effect, 100 = complete kill) at 500 g/ha (corn (Zea mays); post-emergence, Postemergence, 0 to 100 scale, 0 = no effect, 100 = complete control, approx. ten days): 50%; Corn plant response rating (crop injury, 0 = no effect, 100 = complete kill) at 125 g/ha (corn (Zea mays); pre-emergence, Preemergence, 125 g ai/ha, 0 to 100 scale, 0 = no effect, 100 = complete control): 0%; Corn plant response rating (crop injury, 0 = no effect, 100 = complete kill) at 500 g/ha (corn (Zea mays); pre-emergence, Preemergence, visual injury, 0 to 100 scale (0 no effect, 100 complete control), approx. ten days): 20%
